Literature values in patent publication US5912253A, “Rapamycin derivatives” (Novartis AG, priority 1993, dated 1999).

How the values were obtained:
[1] = system: macrophilin-12 (FK-506 binding protein or FKBP-12)
[2] = in vivo

Structure (SMILES)	solubility	binding in vivo to macrophilin-12 [1]	bioavailability [2]
CO[C@H]1C[C@@H]2CC[C@@H](C)[C@@](O)(O2)C(=O)C(=O)N2CCCC[C@H]2C(=O)O[C@H]([C@H](C)C[C@@H]2CC[C@@H](O)[C@H](OC)C2)CC(=O)[C@H](C)/C=C(\C)[C@@H](O)[C@@H](OC)C(=O)[C@H](C)C[C@H](C)/C=C/C=C/C=C/1C [Rapamycin, rapamycin]	highly insoluble	known to bind in vivo to macrophilin-12	very low and variable
C=CC[C@@H]1/C=C(\C)C[C@H](C)C[C@H](OC)[C@H]2O[C@@](O)(C(=O)C(=O)N3CCCC[C@H]3C(=O)O[C@H](/C(C)=C/[C@@H]3CC[C@@H](O)[C@H](OC)C3)[C@H](C)[C@@H](O)CC1=O)[C@H](C)C[C@@H]2OC [FK-506]	–	known to bind in vivo to macrophilin-12	–
